Measured values reported in patent publication US11453671B2, “Pyrazolopyrimidine inhibitors of JAK kinases and uses thereof” (Genentech, Inc., priority 2020, dated 2022).

How the values were obtained:
[1] = test system: JAK1 pathway: P-STAT6 in TF-1 human erythroleukemia cells + IL-13; assay: P-STAT6 TF-1+Interleukin-13 (IL-13) assay; type: cell-based; conditions: Homo sapiens, TF-1, TF-1 cells, IL-13 stimulation; read-out: Cellular JAK1 PSTAT6 TF-1 + IL13 IC50
Procedure: (§1) TF-1 human erythroleukemia cells (ATCC®; Manassas, Va.; Catalog No. CRL-2003™) were grown in Roswell Park Memorial Institute (RPMI) medium supplemented with 10% heat-inactivated fetal bovine serum (FBS), 2 ng/mL granulocyte-macrophage colony-stimulating factor, 1×non-essential amino acids (NEAA), and 1 mM sodium pyruvate. The day before the assay, the cultures were transferred to Opti-MEM™, 1×NEAA, 1 mM sodium pyruvate, and 0.5% charcoal-stripped FBS (starve medium). Inhibitor stock solutions (5 mM in DMSO) were serially diluted 1:2 in DMSO to generate a 10-point concentration titration (at 500×test concentration), which was further diluted by a 50-fold dilution in Assay Medium (RPMI containing 1×NEAA and 1 mM sodium pyruvate) to generate a 10×concentration titration (in 2% DMSO). The cells (300,000 cells/well in 35 μL of Assay Medium) were seeded in 384-well Greiner plates. Diluted inhibitor at 10×concentration (5 μL) was added to the cells and the plates were incubated for 30 minutes at 37° C. in a humidified incubator. Cells were stimulated with the human recombinant cytokine at the respective EC90 concentrations, as previously determined for each individual lot. For the phosphorylated signal transducer and activator of transcription 6 (P-STAT6) TF-1+Interleukin-13 (IL-13) assay, 10 μL of 250 ng/mL IL-13 (R&D Systems; Minneapolis, Minn.) was added to the cells, which were then incubated for 10 minutes at 37° C. For the P-STAT5 TF-1+Erythropoietin (EPO) assay, 10 μL of 110 IU/mL EPO (Gibco Life Technologies, Catalog No. PHC2054) was added to the cells, which were then incubated for 30 min at 37° C. For both assays, the incubation was followed by addition to the cells of 5 μL of ice-cold 10× cell lysis buffer (Cell Signaling Technologies; Danvers, Mass.; Catalog No. 9803S) containing 1 mM phenylmethylsulfonyl fluoride (PMSF). Assay plates were frozen at −80° C. for a minimum of 1 horn. In the IL-13 assay, P-STAT6 was measured by coating goat anti-rabbit (GAR) plates (Meso Scale Discovery [MSD]; Rockville, Md.; Catalog No. MSD L21RA-1) with rabbit anti-human total STAT6 antibody (Cell Signaling Technologies; Catalog No. 9362S), incubating the cell lysates in the coated plates overnight at 4° C., and then detecting with mouse anti-P-STAT6 (Tyr641) Clone 16E12 antibody (MilliporeSigma; Burlington, Mass.; Catalog No. 05-590, custom labeled by MSD with SULFO-tag) using standard MSD plate processing, washing, and detection protocols. In the EPO assay, P-STAT5 was detected using the phospho-STAT5a,b Whole Cell Lysate Kit (MSD; Catalog No. K150IGD-1). The electrochemiluminescence (ECL) signal of wells was read on the MESO SECTOR S600 (MSD) reader.

[2] = Cell cytotoxicity assay Jurkat (CellTiter-Glo, 72 hours); type: cell-based; conditions: human, Jurkat clone E6-1 cells, read-out: Cytotox Jurkat EC50
Description: (§2) Cytotoxicity assays. Hepatocyte toxicity, general cytotoxicity or cytotoxicity of unknown mechanism is an undesirable feature for a potential drug, including inhaled drugs. It may be of benefit for an inhaled JAK1 or JAK1/JAK2 inhibitor to have low intrinsic cytotoxicity against various cell types. Typical cell types used to assess cytotoxicity include both primary cells such as human hepatocytes, and proliferating established cell lines such as Jurkat and HEK-293. […] Methods of measuring cytotoxicity are known in the art. In some embodiments, compounds described herein were tested as follows:
(§3) (a) Jurkat and HEK293T cells were maintained at a sub confluent density in T175 flasks. Cells were plated at 450 cells/45 μl medium in Greiner 384 well black/clear tissue culture treated plates. (Greiner Catalog #781091). After dispensing cells, plates were equilibrated at room temperature for 30 minutes. After 30 minutes at room temperature, cells were incubated overnight at 37° C. in a CO2 and humidity controlled incubator. The following day, cells were treated with compounds diluted in 100% DMSO (final DMSO concentration on cells=0.5%) with a 10 point dose-response curve with a top concentration of 50 μM. Cells and compounds were then incubated for 72 hours overnight at 37° C. in a CO2 and humidity controlled incubator. After 72 hours of incubation, viability was measured using CellTiterGlo® (Promega Catalog #G7572) to all wells. After incubation at room temperature for 20 minutes, plates were read on EnVision™ (Perkin Elmer Life Sciences) using luminescence mode;
(§4) A549 (ATCC® CCL-185™), Jurkat clone E6-1 (ATCC® TIB-152™) and HEK-293T (ATCC® CRL-1573™) cells maintained at a sub-confluent density in T175 flasks were used. Cells in exponential growth phase were plated (450 cells in 45 μL of medium) in Greiner 384-well black/clear tissue culture treated plates (Greiner Catalog No. 781091). After dispensing cells, plates were allowed to equilibrate at room temperature for 30 minutes, after which time the cell plates were placed overnight in a 37° C. CO2 and humidity-controlled incubator. The following day, cells were treated with test agent diluted in 100% DMSO (0.5% final DMSO concentration on cells) with a 10-point titration and a top concentration of 50 μM. Cells and compounds were then incubated for 72 hours in a 37° C. CO2 and humidity-controlled incubator, after which time cell viability was measured by adding CellTiter-Glo® (Promega G7572) reagent to all wells. Plates were incubated at room temperature for 20 minutes and then the well luminescence was read on an EnVision plate reader (Perkin Elmer Life Sciences).

[3] = molecular target: T1, recombinant human JAK1 kinase domain protein (Residues 854-1154) (Homo sapiens, UniProt P23458); assay: JAK1 biochemical assay (microfluidic mobility shift, peptide phosphorylation); conditions: 25 μM ATP, 1 nM total JAK1; read-out: Enzyme JAK1 Ki
T1 construct: human JAK1 kinase domain protein (Residues 854-1154); purchased Proteros Biostructures GmbH (Martinsried, Germany); host or cells: insect cells
T1 sequence (P23458 854-1154): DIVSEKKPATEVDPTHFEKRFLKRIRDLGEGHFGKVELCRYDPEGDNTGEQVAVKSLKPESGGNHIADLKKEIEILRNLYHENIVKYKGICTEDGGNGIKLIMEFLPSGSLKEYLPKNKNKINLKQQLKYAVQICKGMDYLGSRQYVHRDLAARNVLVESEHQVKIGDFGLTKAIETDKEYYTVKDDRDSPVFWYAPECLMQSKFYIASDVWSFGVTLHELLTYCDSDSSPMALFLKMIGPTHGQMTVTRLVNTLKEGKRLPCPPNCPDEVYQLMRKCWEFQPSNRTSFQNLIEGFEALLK
Description: JAK1 and JAK2 Biochemical Assays

[4] = Cell cytotoxicity assay HEK-293T (CellTiter-Glo, 72 hours); type: cell-based; conditions: human, HEK-293T cells, read-out: Cytotox K-293 EC50
Description: as §2, §3, §4

[5] = test system: JAK2 pathway: P-STAT5 in TF-1 human erythroleukemia cells + EPO; assay: P-STAT5 TF-1+Erythropoietin (EPO) assay; type: cell-based; conditions: Homo sapiens, TF-1, TF-1 cells, EPO stimulation; read-out: Cellular JAK2 PSTAT5 TF-l + EPO IC50
Procedure: as §1

[6] = molecular target: Recombinant human JAK2 kinase domain protein (Residues 812-1132) (Homo sapiens, UniProt O60674); assay: JAK2 biochemical assay (microfluidic mobility shift, peptide phosphorylation); conditions: Enzyme JAK2 Ki (nM), 25 μM ATP, 0.2 nM total JAK2
Sequence of Recombinant human JAK2 kinase domain protein (Residues 812-1132) (O60674 812-1132): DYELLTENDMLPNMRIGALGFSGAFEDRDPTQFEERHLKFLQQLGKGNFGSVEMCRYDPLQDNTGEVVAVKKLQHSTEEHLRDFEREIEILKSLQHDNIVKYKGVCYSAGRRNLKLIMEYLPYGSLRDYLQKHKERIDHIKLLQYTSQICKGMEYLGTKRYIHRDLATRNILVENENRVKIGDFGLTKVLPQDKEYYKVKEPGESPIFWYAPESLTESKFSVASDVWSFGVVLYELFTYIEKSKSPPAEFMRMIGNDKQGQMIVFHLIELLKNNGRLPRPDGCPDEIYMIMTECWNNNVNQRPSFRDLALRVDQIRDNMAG

[7] = Table 3, 72 hours, top concentration of 50 μM
[8] = Table 4, methyl-desmethyl analog pairs

Row | SMILES | IC50 [1] [nM] | EC50 at 72 h [2, 7] [nM] | Ki [3] [nM] | EC50 at 72 h [4, 7] [nM] | IC50 [5] [nM] | Ki [6] [nM] | EC50 at 72 h [2, 8] [nM] | EC50 at 72 h [4, 8] [nM]
1 | CC(CO)S(=O)(=O)c1ccc(OC(F)F)c(-c2nn(C)cc2NC(=O)c2cnn3cccnc23)c1 (single isomer, unassigned) [Example 23, N-[3-[2-(difluoromethoxy)-5-(2-hydroxy-1-methyl-ethyl)sulfonyl-phenyl]-1-methyl-pyrazol-4-yl]pyrazolo[1,5-a]pyrimidine-3-carboxamide] | 20 | 24000 | 0.26 | 11000 | 22 | 0.13 | – | –
2 | CC(CO)S(=O)(=O)c1ccc(OC(F)F)c(-c2nn(C)cc2NC(=O)c2cnn3cccnc23)c1 (single isomer, unassigned) [Example 24, N-[3-[2-(difluoromethoxy)-5-(2-hydroxy-1-methyl-ethyl)sulfonyl-phenyl]-1-methyl-pyrazol-4-yl]pyrazolo[1,5-a]pyrimidine-3-carboxamide] | – | – | 0.46 | – | – | 0.19 | – | –
3 | C[C@H](O)CS(=O)(=O)c1ccc(OC(F)F)c(-c2nn(C)cc2NC(=O)c2cnn3cccnc23)c1 (stereo in doubt) [Example 15, N-[3-[2-(difluoromethoxy)-5-[rac-(2S)-2-hydroxypropyl]sulfonyl-phenyl]-1-methyl-pyrazol-4-yl]pyrazolo[1,5-a]pyrimidine-3-carboxamide] | – | 35000 | 0.43 | 25000 | – | 0.16 | – | –
4 | CN1CCCC1CCn1cc(S(=O)(=O)c2ccc(OC(F)F)c(-c3nn(C)cc3NC(=O)c3cnn4cccnc34)c2)cn1 (stereo in doubt) [Example 56, N-[3-[2-(difluoromethoxy)-5-[1-[2-[(2R)-1-methylpyrrolidin-2-yl]ethyl]pyrazol-4-yl]sulfonyl-phenyl]-1-methyl-pyrazol-4-yl]pyrazolo[1,5-a]pyrimidine-3-carboxamide] | – | 24000 | 0.71 | 10000 | – | 0.76 | – | –
5 | COCCS(=O)(=O)c1ccc(OC(F)F)c(-c2nn(C)cc2NC(=O)c2cnn3cccnc23)c1 [Example 14, N-[3-[2-(difluoromethoxy)-5-(2-methoxyethylsulfonyl)phenyl]-1-methyl-pyrazol-4-yl]pyrazolo[1,5-a]pyrimidine-3-carboxamide] | – | ≥ 50000 | 0.49 | 32000 | – | – | – | –
6 | Cn1cc(NC(=O)c2cnn3cccnc23)c(-c2cc(S(=O)(=O)c3ccncc3)ccc2OC(F)F)n1 [Example 16, N-[3-[2-(difluoromethoxy)-5-(4-pyridylsulfonyl)phenyl]-1-methyl-pyrazol-4-yl]pyrazolo[1,5-a]pyrimidine-3-carboxamide] | – | 6200 | 0.32 | 7600 | – | 0.19 | – | –
7 | Cn1cc(NC(=O)c2cnn3cccnc23)c(-c2cc(S(C)(=O)=O)ccc2OC(F)F)n1 [Example 17, N-[3-[2-(difluoromethoxy)-5-methylsulfonyl-phenyl]-1-methyl-pyrazol-4-yl]pyrazolo[1,5-a]pyrimidine-3-carboxamide] | – | 11000 | 0.22 | 7300 | – | 0.1 | 11000 | 7300
8 | Cn1cc(NC(=O)c2cnn3cccnc23)c(-c2cc(S(=O)(=O)N3CCC3)ccc2OC(F)F)n1 [Example 21, N-[3-[5-(azetidin-1-ylsulfonyl)-2-(difluoromethoxy)phenyl]-1-methyl-pyrazol-4-yl]pyrazolo[1,5-a]pyrimidine-3-carboxamide] | – | 11000 | 0.22 | 4800 | – | 0.16 | – | –
9 | CNS(=O)(=O)c1ccc(OC(F)F)c(-c2nn(C)cc2NC(=O)c2cnn3cccnc23)c1 [Example 26, N-[3-[2-(difluoromethoxy)-5-(methylsulfamoyl)phenyl]-1-methyl-pyrazol-4-yl]pyrazolo[1,5-a]pyrimidine-3-carboxamide] | – | 12000 | 0.16 | 5800 | – | 0.097 | – | –
10 | CN(C)S(=O)(=O)c1ccc(OC(F)F)c(-c2nn(C)cc2NC(=O)c2cnn3cccnc23)c1 [Example 30, N-[3-[2-(difluoromethoxy)-5-(dimethylsulfamoyl)phenyl]-1-methyl-pyrazol-4-yl]pyrazolo[1,5-a]pyrimidine-3-carboxamide] | – | 9200 | 0.22 | 2400 | – | 0.14 | – | –
11 | Cn1cc(NC(=O)c2cnn3cccnc23)c(-c2cc(S(=O)(=O)CCCO)ccc2OC(F)F)n1 [Example 63, N-[3-[2-(difluoromethoxy)-5-(3-hydroxypropylsulfonyl)phenyl]-1-methyl-pyrazol-4-yl]pyrazolo[1,5-a]pyrimidine-3-carboxamide] | – | 35000 | 0.58 | 20000 | – | 0.28 | – | –
12 | CN(CCO)S(=O)(=O)c1ccc(OC(F)F)c(-c2nn(C)cc2NC(=O)c2cnn3cccnc23)c1 [Example 73, N-(3-(2-(difluoromethoxy)-5-(N-(2-hydroxyethyl)-N-methylsulfamoyl)phenyl)-1-methyl-1H-pyrazol-4-yl)pyrazolo[1,5-a]pyrimidine-3-carboxamide] | – | 8400 | 0.63 | 2900 | – | 0.21 | – | –
